Results taken from publication PMC9223658, “New Borane-Protected Derivatives of α-Aminophosphonous Acid as Anti-Osteosarcoma Agents: ADME Analysis and Molecular Modeling, In Vitro Studies on Anti-Cancer Activities, and NEP Inhibition as a Possible Mechanism of Anti-Proliferative Activity” (International Journal of Molecular Sciences, 2022).

Tests used:
[1] = test system: active caspase 3 in Saos-2 cells; experiment: Active caspase 3 assay (flow cytometry); format: cell-based, human; conditions: 72 h
Procedure: (§1) The level of active executor caspase 3 and initiator caspase 9 was determined to examine whether compounds 4 and 6 induced apoptosis in the HOS and Saos-2 cells. The influence of compounds 4 and 6 on HOS and Saos-2 were determined with the caspase 3 assay, whereas the influence of compound 6 on the HOS cells was investigated with the caspase 9 assay. In both assays, the osteosarcoma cells (3.0 × 10^5 cells/mL) were seeded in 6-well plates. The cells were treated with compounds 4 and 6 at concentrations of 12.5, 25, 50 µM and 20, 40, 80 µM as well as 15, 30, 60 µM and 21.25, 42.5, 85 µM for 72 h, respectively. The solutions of the compounds were prepared in a medium with 2% FBS. […] Next, floating and adherent cells were harvested and subjected to further steps of the staining procedures according to the manufacturer’s instruction. The level of active caspase 3 and caspase 9 was determined using the PE Active Caspase-3 Apoptosis Kit (BD Pharmingen^TM) and the CaspaTag^TM Caspase-9 in Situ Assay Kit (Millipore, Darmstadt, Germany), respectively. The number of stained cells (active caspase 3- or 9-positive cells) was measured using FACS Calibur, and the obtained data were analyzed using Cell Quest Pro Version 6.0. for the Macintosh operating system (BD Pharmingen™). The presented results were calculated as a percent of cells with either active caspase 3 or 9 among all the analyzed cells.

[2] = test system: active caspase 3 in HOS cells; experiment: Active caspase 3 assay (flow cytometry); format: cell-based, human; conditions: 72 h
Procedure: as §1

[3] = test system: Saos-2 cells; experiment: BrdU proliferation assay, 96 h; format: cell-based, human; conditions: Saos-2, 60 µM, cells pre-treated with 100 µM thiorphan for 1 h, 96 h
Procedure: (§2) In the study on the implication of NEP in the anti-proliferative activity of compound 4, cell proliferation was determined with the BrdU assay. Cell cultures were prepared as described above. Depending on the requirements, the HOS and Saos-2 cells were treated with non-cytotoxic concentrations of the NEP inhibitor—thiorphan (1, 5, 20, 100, 200, 500 µM) or pre-treated with thiorphan (100 µM) for 1 h. In this scheme, compound 4 (HOS—25 µM; Saos-2—60 µM) was added alone or in combination with the NEP inhibitor into the cell cultures. Finally, cell proliferation was evaluated with the BrdU Cell Proliferation Assay according to the manufacturer’s instructions (Millipore, Darmstadt, Germany) after a 96-h incubation.
(§3) The results of these assays were calculated as a percent of the untreated cells (100%; control). Then, the IC50 (concentration resulting in 50% inhibition of proliferation) and CC50 (concentration resulting in a 50% decrease in viability) values were calculated from a non-linear regression (log(inhibitor) vs. normalized response-variable slope) using GraphPad Prism 5.0 (GraphPAD Software Inc., San Diego, CA, USA). The IC50 and CC50 results were presented as themean ± SD of at least three experiments. In the case of the BrdU assay, the results were presented as a percent of untreated cells (100%; control).

[4] = test system: HOS cells; experiment: BrdU proliferation assay, 96 h; format: cell-based, human; conditions: 25 µM, cells pre-treated with 100 µM thiorphan for 1 h, 96 h
Procedure: as §2, §3

[5] = test system: Saos-2 cells; experiment: Cell cycle assay (PI/RNase, flow cytometry); format: cell-based, human; conditions: 72 h
Procedure: (§4) To examine the influence of compounds 4 and 6 on the distribution of cells in the cell cycle phases, the HOS and Saos-2 osteosarcoma cells (3.0 × 10^4 cells/mL) were seeded into 6-well plates (Nunc) and incubated with compounds 4 and 6 at concentrations of 12.5, 25, 50 µM and 20, 40, 80 µM as well as 15, 30; 60 µM and 21.25, 42.5, 85 µM, respectively. The compound solutions were prepared in a medium with 10% FBS. The control was constituted by the untreated cells (0 µM). The cells were treated for 72 h. Next, floating and adherent cells were harvested and subjected to further steps of the PI staining procedure (PI/RNase Staining Buffer, BD Pharmingen^TM, BD Biosciences, San Jose, CA, USA) previously described. The PI fluorescence intensity was measured using FACS Calibur (BD Pharmingen^TM), and the obtained data were analyzed using Cell Quest Pro Version 6.0. for the Macintosh operating system (BD Pharmingen^TM). The presented results were calculated as a percent of cells in the respective cell cycle phases (sub-G1, G0/G1, S and G2) among all the analyzed cells.

[6] = test system: HOS cells; experiment: Cell cycle assay (PI/RNase, flow cytometry); format: cell-based, human; conditions: 72 h
Procedure: as §4

[7] = MTT viability assay, 24 h; format: cell-based; conditions: human, normal osteoblasts hFOB 1.19 cells, 2% FBS, read-out: CC50 (µM ± SD) hFOB 1.19
Procedure: One of the features specific totumor cells is the unlimited potential for proliferation. […] To this end, the assay conditions were established suchthat they encourage the proliferation of OS cells, i.e., the cell cultures at low density were incubated with compounds diluted in the growth medium (10% FBS) for an extended time of 96 h. Additionally, cisplatin, i.e., a common cytostatic used in osteosarcoma treatment, was included as a positive control in this study. Moreover, since the new generation of anti-cancer compounds is highly desired to be inert (non-cytotoxic) towards normal cells, the influence of compounds 1–7 on the viability of human normal cells (osteoblasts hFOB 1.19 and colon fibroblasts CCD-18Co) was also determined.To this end, the assay conditions were established such that they restrict the proliferation of OS cells and to establish whether the compounds have cytotoxic potential, i.e., the cell cultures were incubated with compounds diluted in the medium with a reduced concentration of FBS (2%) for a shortened time of 24 h. […] However, this activity varied depending on both the types of the compounds and the osteosarcoma cell lines (Table 4).
The anti-proliferative activity of compounds 1–7 against the HOS and Saos-2 osteosarcoma cells and the viability of the human normal hFOB 1.19 and CCD-18Co cells were screened by means of the MTT method. This method is commonly used to assess cell viability and proliferation or to determine the cytotoxicity of any compounds. It is a reliable method for this purpose because it is based on measurement of the level reduction in MTT dye to formazan byNAD(P)H-dependent oxidoreductase enzymes of metabolically active cells.
To assess the viability of human normal cells, confluent hFOB 1.19 (3 × 10^5 cells/mL) and CCD-18Co (1 × 10^5 cells/mL) cells seeded in 96-well plates (Nunc) were incubated with compounds 1–7 at concentrations of 3.125, 6.25, 12.5, 25, 50, 100 and 200 µM prepared in medium with 2% FBS (maintaining medium) for 24 h. The control was constituted by the untreated cells (0 µM). Next, the MTT assay was carried out as described previously.
as §3

[8] = test system: active caspase 9 in HOS cells; experiment: Active caspase 9 assay (flow cytometry); format: cell-based, human; conditions: 72 h
Procedure: as §1

SMILES	increase in active caspase 3 vs untreated cells ([1]; Saos-2, 30 µM)	increase in active caspase 3 vs untreated cells ([1]; Saos-2, 60 µM) [%]	increase in active caspase 3 vs untreated cells ([2]; 25 µM)	increase in active caspase 3 vs untreated cells ([2]; 50 µM) [%]	effect of thiorphan pretreatment on anti-proliferative properties [3]	effect of thiorphan pretreatment on anti-proliferative properties [4]	number of cells at sub-G1 phase ([5]; Saos-2, 30 µM and 60 µM)	number of cells at G0/G1 phase ([6]; 25 µM and 50 µM)	number of cells at sub-G1 and G2 phases ([6]; 25 µM and 50 µM)	CC50 at 24 h [7] [µM]	increase in active caspase 3 vs untreated cells ([1]; Saos-2, 42.5 µM)	increase in active caspase 3 vs untreated cells ([1]; Saos-2, 85 µM) [%]	increase in active caspase 3 vs untreated cells ([2]; 40 µM)	increase in active caspase 3 vs untreated cells ([2]; 80 µM) [%]	number of cells at sub-G1 phase ([5]; Saos-2, 42.5 µM and 85 µM)	number of cells at G0/G1 phase ([6]; 40 µM and 80 µM)	number of cells at sub-G1 and G2 phases ([6]; 40 µM and 80 µM)	increase in active caspase 9 vs untreated cells ([8]; 40 µM)	increase in active caspase 9 vs untreated cells ([8]; 80 µM) [%]
[BH3-][P+](OC(C)C)(OC(C)C)C(Nc1ccc(Br)cc1)c1ccc([N+](=O)[O-])cc1 (centres unmarked) [Compound 4, [1-(N-p-bromophenylamino)]-1-(p-nitrophenyl)methylphosphonousacid-borane diisopropyl ester]	approx. 5%	~10	approx. 5%	~6	partially abolished	partially abolished	significant increase	significant decrease	statistically significant increase	189 ± 36.4									
[BH3-][P+](OC(C)C)(OC(C)C)C(Nc1ccc(C)cc1)c1ccccc1 (centres unmarked) [Compound 6, [1-(N-p-tolylamino)]-1-phenylmethylphosphonous acid-borane diisopropyl ester]										266 ± 110	approx. 4%	~6	approx. 9%	~20	significant increase	significant decrease	statistically significant increase	approx. 4%	~6
